Some test systems named below: HCT-116 colon; SNB-75 CNS; MDA-MB-231 breast; NCI-H522 lung; HOP-92 NSCLC; HL-60(TB) leukemia; HCT-15 colon; OVCAR-3 ovarian; OVCAR-4 ovarian; SK-MEL-5 melanoma.
What all share (assay): NCI tumour cell line growth inhibition, 48 h

Results on five compounds are retold here after PubChem BioAssay (NCI).

Structures are written as SMILES. “And” between values parts separate entries of the source, which are not always exact repeats. Identical values can stand only once.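 Exposure lasted 48 hours, with cells grown in 96-well plates and compounds tested at five concentrations. Here, GI50 denotes the concentration required for 50% inhibition of growth. TGI denotes the concentration required for complete inhibition of growth.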

Consider `CCn1c(-c2cc3ccccc3cc2O)nn(C(=O)c2c(Cl)cccc2Cl)c1=S`, for which the GI50 was 28.5 µM in the assay with HCT-116 colon; 42.5 µM in the assay with SNB-75 CNS; 44.4 µM with MDA-MB-231 breast; 21.6 µM in the assay on NCI-H522 lung; over 50 µM in the assay with HOP-92 NSCLC; 14.3 µM with HL-60(TB) leukemia. The GI50 was 16.3 µM with HCT-15 colon, 23.7 µM with OVCAR-3 ovarian, over 50 µM in the assay with OVCAR-4 ovarian and 10 µM with SK-MEL-5 melanoma. The TGI in the assay on HCT-116 colon is over 50 µM; in the assay with SNB-75 CNS it was over 50 µM; in the assay on MDA-MB-231 breast it was over 50 µM; in the assay with NCI-H522 lung, over 50 µM; in the assay with HOP-92 NSCLC, over 50 µM; in the assay with HL-60(TB) leukemia, 38.7 µM. Also, the TGI with HCT-15 colon is over 50 µM; in the assay on OVCAR-3 ovarian, over 50 µM; in the assay on OVCAR-4 ovarian, over 50 µM; in the assay with SK-MEL-5 melanoma it was 19.7 µM.

On to `CCN(CC)CCCC(C)N=C(C1=C(C(=NC(C)CCCN(CC)CC)c2cccc(OC)c2)C(=O)NC1=O)c1cccc(OC)c1` (stereo not drawn), for which the GI50 is 0.747 µM with HCT-116 colon; 1.65 µM in the assay with SNB-75 CNS; 1.17 µM with MDA-MB-231 breast; 0.989 µM in the assay with NCI-H522 lung; 0.993 µM in the assay on HOP-92 NSCLC; 3.66 µM with HL-60(TB) leukemia. The GI50 in the assay on HCT-15 colon was 1.47 µM; in the assay on OVCAR-3 ovarian it was 1.45 µM; in the assay on OVCAR-4 ovarian, 1.18 µM; with SK-MEL-5 melanoma, 0.888 µM. Besides, the TGI in the assay on HCT-116 colon was determined as 1.89 µM; in the assay on SNB-75 CNS it was 6.81 µM; in the assay on MDA-MB-231 breast it was 3.78 µM; with NCI-H522 lung, 2.03 µM; in the assay with HOP-92 NSCLC, 3.63 µM; in the assay on HL-60(TB) leukemia, 11.7 µM. Also, the TGI with HCT-15 colon stood at 5.53 µM; in the assay on OVCAR-3 ovarian it was 4.11 µM; in the assay on OVCAR-4 ovarian, 3.49 µM; in the assay with SK-MEL-5 melanoma it was 1.66 µM.

Regarding `Cc1sc2c(c1C)C(c1ccc(Cl)cc1)=N[C@@H](CC(=O)OC(C)(C)C)c1nnc(C)n1-2`, the GI50 with HCT-116 colon was 0.44 µM and 0.311 µM; with SNB-75 CNS, 0.0325 µM and 0.025 µM; in the assay with MDA-MB-231 breast it was 0.714 µM and 0.304 µM; with NCI-H522 lung it was 0.179 µM and 0.0566 µM; with HOP-92 NSCLC it was 0.0319 µM and 0.0183 µM; in the assay with HL-60(TB) leukemia it was 0.118 µM and 0.0301 µM. Further, the GI50 was 0.308 µM and 0.157 µM with HCT-15 colon; 1.24 µM and 0.498 µM with OVCAR-3 ovarian; 0.123 µM and 0.15 µM with OVCAR-4 ovarian; 0.0966 µM and 0.337 µM with SK-MEL-5 melanoma. In addition, the TGI in the assay on HCT-116 colon was 16.4 µM and 15.4 µM; with MDA-MB-231 breast it was 26 µM and 18.5 µM; with NCI-H522 lung, 7.38 µM and 11.6 µM; in the assay on HOP-92 NSCLC, 0.39 µM and 0.29 µM; in the assay with HCT-15 colon it was 13.4 µM and 13.7 µM; with OVCAR-3 ovarian it was 18 µM and 15.6 µM. Besides, the TGI in the assay with OVCAR-4 ovarian was 17.2 µM and 16.1 µM; with SK-MEL-5 melanoma, 4.27 µM and 14.2 µM.

Regarding `CN1C(=O)N[C@H]2[C@@H]3NC(=O)c4ccc(Br)n4[C@@H]3C[C@]21O`, the GI50 in the assay on HCT-116 colon was 0.112 µM; in the assay with SNB-75 CNS it was 0.106 µM; in the assay on MDA-MB-231 breast, 0.165 µM; in the assay with NCI-H522 lung it was 0.0384 µM; in the assay on HOP-92 NSCLC, 0.0955 µM; in the assay on HL-60(TB) leukemia, 0.0324 µM. In addition, the GI50 was 0.979 µM in the assay with HCT-15 colon, 0.121 µM in the assay with OVCAR-3 ovarian, 0.093 µM in the assay with OVCAR-4 ovarian and under 0.0148 µM with SK-MEL-5 melanoma. The TGI in the assay with HCT-116 colon stood at 2.39 µM; in the assay on SNB-75 CNS, 0.969 µM; with MDA-MB-231 breast, 2.69 µM; in the assay with NCI-H522 lung it was 0.31 µM; in the assay with HOP-92 NSCLC, 1.28 µM; in the assay on HL-60(TB) leukemia it was 0.132 µM. Moreover, the TGI was determined as 8.49 µM in the assay on HCT-15 colon, 1.85 µM in the assay with OVCAR-3 ovarian, 1.56 µM in the assay with OVCAR-4 ovarian and 0.0653 µM in the assay on SK-MEL-5 melanoma.

`C=C1CCC2C(C)(COC(=O)CC)C(OC(=O)CC)CCC2(C)C1C/C=C1/C(=O)OCC1OC(=O)CC` (stereo not drawn): the GI50 in the assay on HCT-116 colon is 1.14 µM; in the assay with SNB-75 CNS, 1.22 µM; in the assay with MDA-MB-231 breast it was 2.31 µM; in the assay with NCI-H522 lung, 0.346 µM; in the assay with HOP-92 NSCLC it was 3.03 µM; in the assay with HL-60(TB) leukemia, 1.82 µM. Further, the GI50 in the assay on HCT-15 colon was 1.96 µM; in the assay with OVCAR-3 ovarian it was 1.77 µM; in the assay with OVCAR-4 ovarian it was 2.33 µM; with SK-MEL-5 melanoma, 2.08 µM. In addition, the TGI came out at 2.55 µM in the assay on HCT-116 colon; 3.68 µM in the assay on SNB-75 CNS; 5.19 µM in the assay on MDA-MB-231 breast; 1.7 µM in the assay with NCI-H522 lung; 7.15 µM with HOP-92 NSCLC; 5.85 µM with HL-60(TB) leukemia. Also, the TGI was found to be 6 µM in the assay with HCT-15 colon, 3.15 µM with OVCAR-3 ovarian, 6.9 µM with OVCAR-4 ovarian and 4.39 µM in the assay on SK-MEL-5 melanoma.
